In US10681909B2, “Herbicidal triazoles” (FMC Corporation, priority 2014, dated 2020):

Tests used:
Assay in all cases: Test E postemergence
field bindweed = assay type: in vivo, Convolvulus arvensis; conditions: scale 0 to 100
From the text: (§1) Seeds of plant species selected from corn (Zea mays), soybean (Glycine max), lambsquarters (Chenopodium album), poinsettia, wild (wild poinsettia, Euphorbia heterophylla), pigweed, palmer (palmer pigweed, Amaranthus palmeri), waterhemp (common waterhemp, Amaranthus rudis), surinam grass (Brachiaria decumbens), crabgrass, large (large crabgrass, Digitaria sanguinalis), crabgrass, Brazilian (Brazilian crabgrass, Digitaria horizontalis), panicum, fall (fall panicum, Panicum dichotomiflorum), foxtail, giant (giant foxtail, Setaria faberii), foxtail, green (green foxtail, Setaria viridis), goosegrass (Eleusine indica), johnsongrass (Sorghum halepense), ragweed (common ragweed, Ambrosia elatior), barnyardgrass (Echinochloa crus-galli), sandbur (southern sandbur, Cenchrus echinatus), arrowleaf sida (Sida rhombifolia), ryegrass, Italian (Italian ryegrass, Lolium multiflorum), dayflower, VA (Virginia dayflower, Commelina virginica), field bindweed (Convolvulus arvensis), cocklebur (common cocklebur, Xanthium strumarium), morningglory (Ipomoea coccinea), nightshade (eastern black nightshade, Solanum ptycanthum), kochia (Kochia scoparia), nutsedge, yellow (yellow nutsedge, Cyperus esculentus), smartweed (ladysthumb smartweed, Polygonum persicaria), velvetleaf (Abutilon theophrasti), horseweed (Conyza canadensis), and beggarticks (hairy beggarticks, Bidens pilosa), were planted into a silt loam soil and treated preemergence with test chemicals formulated in a non-phytotoxic solvent mixture which included a surfactant.
(§2) At the same time, plants from these crop and weed species and also waterhemp_RES1, (ALS & Triazine resistant common waterhemp, Amaranthus rudis), and waterhemp_RES2, (ALS & HPPD resistant common waterhemp, Amaranthus rudis) were planted in pots containing Sunshine Redi-Earth® planting medium comprising spaghnum peat moss, vermiculite, starter nutrients and dolomitic limestone were treated with postemergence applications of test chemicals formulated in the same manner. Plants ranged in height from 2 to 18 cm for postemergence treatments (1- to 4-leaf stage). Treated plants and controls were maintained in a greenhouse for 14 to 21 d, after which time all species were compared to controls and visually evaluated. Plant response ratings, summarized in Table E, are based on a scale of 0 to 100 where 0 is no effect and 100 is complete control. A dash (-) response means no test result.

crabgrass, Brazilian = assay type: in vivo, Digitaria horizontalis; conditions: Brazil, scale 0 to 100
From the text: as §1, §2

panicum, fall = assay type: in vivo, Panicum dichotomiflorum; conditions: scale 0 to 100
From the text: as §1, §2

sandbur = assay type: in vivo, Cenchrus echinatus; conditions: scale 0 to 100
From the text: as §1, §2

corn = assay type: in vivo, Zea mays; conditions: scale 0 to 100
From the text: as §1, §2

soybean = assay type: in vivo, Glycine max; conditions: scale 0 to 100
From the text: as §1, §2

arrowleaf sida = assay type: in vivo, Sida rhombifolia; conditions: scale 0 to 100
From the text: as §1, §2

**Q.** For `COc1nc(-c2ccc(Cl)cc2)nn1Cc1ccnc(C(F)(F)F)c1` [Compound 28], which Plant response rating (field bindweed; 31 g ai/ha) is on record?
**A.** 50

**Q.** What about the Plant response rating (field bindweed; 62 g ai/ha) of the same molecule?
**A.** 75

**Q.** And the Plant response rating (field bindweed; 125 g ai/ha)?
**A.** 80

**Q.** And the Plant response rating (field bindweed; 250 g ai/ha)?
**A.** 80

**Q.** What about the Plant response rating (crabgrass, Brazilian; 31 g ai/ha) of the same molecule?
**A.** 40

**Q.** What about the Plant response rating (crabgrass, Brazilian; 62 g ai/ha) of the same molecule?
**A.** 50

**Q.** And the Plant response rating (crabgrass, Brazilian; 125 g ai/ha)?
**A.** 50

**Q.** And the Plant response rating (crabgrass, Brazilian; 250 g ai/ha)?
**A.** 50

**Q.** What about the Plant response rating (panicum, fall; 31 g ai/ha) of the same molecule?
**A.** 15

**Q.** And the Plant response rating (panicum, fall; 62 g ai/ha)?
**A.** 20

**Q.** And the Plant response rating (panicum, fall; 125 g ai/ha)?
**A.** 20

**Q.** What about the Plant response rating (panicum, fall; 250 g ai/ha) of the same molecule?
**A.** 20

**Q.** What about the Plant response rating (sandbur; 31 g ai/ha) of the same molecule?
**A.** 20

**Q.** And the Plant response rating (sandbur; 62 g ai/ha)?
**A.** 30

**Q.** What about the Plant response rating (sandbur; 125 g ai/ha) of the same molecule?
**A.** 30

**Q.** What about the Plant response rating (sandbur; 250 g ai/ha) of the same molecule?
**A.** 40

**Q.** What about the Plant response rating (corn; 31 g ai/ha) of the same molecule?
**A.** 15

**Q.** What about the Plant response rating (corn; 62 g ai/ha) of the same molecule?
**A.** 20

**Q.** And the Plant response rating (corn; 125 g ai/ha)?
**A.** 20

**Q.** And the Plant response rating (corn; 250 g ai/ha)?
**A.** 30

**Q.** What about the Plant response rating (soybean; 31 g ai/ha) of the same molecule?
**A.** 70

**Q.** And the Plant response rating (soybean; 62 g ai/ha)?
**A.** 75

**Q.** What about the Plant response rating (soybean; 125 g ai/ha) of the same molecule?
**A.** 95

**Q.** And the Plant response rating (soybean; 250 g ai/ha)?
**A.** 80

**Q.** And the Plant response rating (arrowleaf sida; 31 g ai/ha)?
**A.** 70

**Q.** And the Plant response rating (arrowleaf sida; 62 g ai/ha)?
**A.** 80

**Q.** And the Plant response rating (arrowleaf sida; 125 g ai/ha)?
**A.** 80

**Q.** What about the Plant response rating (arrowleaf sida; 250 g ai/ha) of the same molecule?
**A.** 75
